Data on two molecules can be found in PMC3820767, “Turning Defense into Offense: Defensin Mimetics as Novel Antibiotics Targeting Lipid II” (PLoS Pathogens, 2013).

The test system of data set [1] is human red blood cells. The experiment in a line: Red Blood Cell (RBC) lysis. The data set is classed as cell-based. As to conditions: human RBCs, 30 min, room temperature, up to 16× MIC. On the procedure: The method described by Stasiuk et al. was followed in general. Defibrinated human blood (Valley BioMedical) was washed three times with buffer (10 mM Tris-HCl, pH 7.4, 0.9% NaCl) and resuspended to a final concentration of 3% RBCs immediately prior to performing the assay. One hundred eighty microliters of RBCs were added to 1020 µl buffer containing various concentrations of the investigational compound. […] DMSO alone (5% final concentration) served as the negative control to subtract the background, while a reaction with water substituted for buffer served as a positive control that completely lyses the RBCs. […] Incubation of compounds and RBCs proceeded for 30 minutes at room temperature, followed by centrifugation at 1,300× g for 5 minutes to pellet the RBCs. Finally, 300 µl of the supernatant was removed to a 96-well plate and the released hemoglobin was measured at A540 using a SpectraMax (Molecular Dynamics) plate reader. Prism (GraphPad) software was used for data analysis. Results were expressed as percent lysis compared to treatment of RBCs with deionized water, which completely ruptures the membrane. Analyses were performed by Micromyx, LLC (Kalamazoo, Michigan).

The nature of data set [2]: Cytotoxicity by MTT assay. Format: cell-based, human. As to conditions: human, Jurkat cells; concentration resulting in 50% cell survival, MTT, 4 h; read-out: Cytotoxicity (C50%) Jurkat. (In general: Tetrazolium assays rely on reduction of a dye to a coloured formazan, in cell work by metabolically active cells.)
For data set [3], the system named is Enterococcus faecalis MMX101-ATCC 29212. The experiment in a line: Broth microdilution susceptibility testing (CLSI). The data set is classed as cell-based. Particulars: Enterococcus faecalis, ATCC29212, read-out: MIC Enterococcus faecalis 101-29212. On the procedure:
(§1) The antibacterial activity of defensin mimetics against Staphylococcus aureus ATCC 29213 and Escherichia coli 25922 was carried out in a 96-well turbidimetric assay essentially as described previously with the following modifications: bacteria were exposed for 30 min to compounds in 10 mM phosphate buffer containing 5% DMSO prior to addition of 2× Muller-Hinton medium. Bacterial growth was monitored for 12 hours and data were analyzed as described. Determination of MICs was performed by Micromyx, LLC (Kalamazoo, Michigan) according to CLSI standards.

The test system of data set [4] is Staphylococcus aureus (MRSA) MMX757. The experiment in a line: Broth microdilution susceptibility testing (CLSI). The data set is classed as cell-based. Particulars: Staphylococcus aureus, MRSA, read-out: MIC Staphylococcus aureus (MRSA) 757-NA. The procedure: as §1
A general note: Dilution methods test growth across graded concentrations, often in twofold steps.

The subject of data set [5] is Streptococcus pneumoniae MMX1195-ATCC 49619. The experiment in a line: Broth microdilution susceptibility testing (CLSI). The data set is classed as cell-based. Particulars: Streptococcus pneumoniae, ATCC49619, read-out: MIC Streptococcus pneumoniae 1195-49619. The procedure: as §1
For data set [6], the system named is Enterococcus faecalis (VRE) MMX848. The experiment in a line: Broth microdilution susceptibility testing (CLSI). Format: cell-based. As to conditions: Enterococcus faecalis, VRE, read-out: MIC Enterococcus faecalis (VRE) 848-NA. The procedure:
as §1

Data set [7] deals with Pseudomonas aeruginosa MMX103-ATCC 27853. The experiment in a line: Broth microdilution susceptibility testing (CLSI). The data set is classed as cell-based. Particulars: Pseudomonas aeruginosa, ATCC27853, read-out: MIC Pseudomonas aeruginosa 103-27853. On the procedure: as §1
In data set [8] the test system is Staphylococcus aureus MMX100-ATCC 29213. The experiment in a line: Broth microdilution susceptibility testing (CLSI). Particulars: Staphylococcus aureus, ATCC29213, read-out: MIC Staphylococcus aureus 100-29213. The data set is classed as cell-based. On the procedure: as §1
The subject of data set [9] is Escherichia coli MMX102-ATCC 25922. The experiment in a line: Broth microdilution susceptibility testing (CLSI). The data set is classed as cell-based. Particulars: for MIC: Escherichia coli, ATCC25922, read-out: MIC Escherichia coli 102-25922. The procedure: as §1
The subject of data set [10] is S. aureus ATCC 29213. The experiment in a line: Murine peritoneal sepsis model. The data set is classed as in vivo, C57BL/6J mice. Particulars: mice n = 5, i.p. treatment 1 h and 4 h post-infection; compound […], vancomycin/lysostaphin 5 mg/kg. On the procedure:
Mice were fed standard chow (Harlan Laboratories) and water ad libitum. […] Animals were closely observed during a period of 24 hours and mice that show signs of severe sepsis were humanely euthanized. Blood samples were collected by retro-orbital puncture at the indicated intervals post-infection using lithium-heparin polystyrene tubes to prevent coagulation. […] Whole blood samples and spleen homogenates were serially diluted and plated onto LB agar plates.

For data set [11], the system named is Streptococcus pneumonia (PRSP) MMX884. The experiment in a line: Broth microdilution susceptibility testing (CLSI). Format: cell-based, Streptococcus pneumoniae. As to conditions: Streptococcus pneumoniae, PRSP, read-out: MIC Streptococcus pneumonia (PRSP) 884-NA. On the procedure: as §1
Data set [12] can be described thus: LUV leakage assay. The procedure: Large unilamellar vesicles were prepared by the extrusion technique. Vesicles were made of Di-Palmoyl-Phosphatidyl Choline (DPPC, Avanti Polar Lipids) with or without 0.1 mol % Lipid II. Vesicles were prepared with 50 mM rhodamine, washed with saline solution and purified by G25 Sephadex column (GE healthcare). Compounds were diluted in saline solution in 96-well plate format and vesicles were added to each well. The increase of fluorescence intensity was measured at 612 nm (excitation at 544 nm) on a Molecular Dynamics spectrophotometer at 20 °C. Compound-induced leakage was expressed relative to the total amount of rhodamine released after lysis of the vesicles by addition of 10 µl of 20% Triton X-100.

Structures are written as SMILES. Where only a bound is given, the exact number is not on record here.

As usually defined, the MIC is the least concentration at which growth counts as inhibited. For the molecule `CN1/C(=C/C=C/c2cc(-c3ccccc3)cc(-c3ccccc3)[o+]2)C(C)(C)c2ccccc21` [BAS00127538, 2,4-diphenyl-6-[(1E)-3-[(2E)-1,3,3-trimethyl-2,3-dihydro-1H-indol-2-ylidene]prop-1-en-1-yl]-1$l^4-pyran-1-ylium], in data set [1], the “lysis of red blood cells” value is recorded as “does not induce lysis of red blood cells”. Besides, the IC50 at 4 h in data set [2] was 14.5 µM. Moreover, the MIC is 1 µg/mL in data set [3]; 0.5 µg/mL in data set [4]; 8 µg/mL in [5]; 1 µg/mL in [6]; > 8 µg/mL in data set [7]; 0.5 µg/mL in data set [8]. The minimum inhibitory concentration (MIC) in data set [9] was found to be 4 µg/mL; in [11], 8 µg/mL. The “MIC Escherichia coli 102-25922” value in data set [9] is recorded as 4 µg/mL. The survival in data set [10] is 4 out of five animals. Also, the “leakage of LUVs” value in data set [12] (8 µg/ml (16× MIC for S. aureus)) was “significant leakage”. Further, in [12] (LUVs with vs without Lipid II), the “effect of Lipid II on compound-induced lysis of LUVs” value is “reduced by the presence of Lipid II”.

On to `CN(C)c1ccc(/C=C/c2cc(-c3ccccc3)[o+]c(-c3ccccc3)c2)cc1` [Compound 1499-1221], for which, in data set [1], the “lysis of red blood cells” value was “significant membrane rupture”. For the same molecule, the IC50 at 4 h in data set [2] was 18.6 µM. The MIC in data set [3] is 2 µg/mL; in [4] it was 0.5 µg/mL; in data set [5] it was > 8 µg/mL; in [6] it was 2 µg/mL; in data set [7], > 16 µg/mL; in data set [8], 0.25 µg/mL. Moreover, the results for the minimal inhibitory concentration (MIC) in data set [9] and in [11] were > 16 µg/mL and > 8 µg/mL, respectively. Further, in data set [12] (LUVs with or without Lipid II), the “membrane rupture in LUVs” value was “significant membrane rupture in LUVs irrespective of Lipid II”.
